# Source: patent US20210213010A1, “TLR7/8 AGONISTS AND LIPOSOME COMPOSITIONS” (Torque Therapeutics, Inc., priority 2018, published 2021)
# “And” between values parts separate entries of the source, which are not always exact repeats. Equal entries are not always repeated.
# Experiments:
# RAW-Blue cells = assay: NF-κB induction in RAW-Blue reporter cells (RAW 264.7 macrophages, SEAP); format: cell-based; settings: for EC50: RAW-Blue, sigmoidal 4PL fitting, 24 h; for Potency in the RAW-Blue cell assay: compared with R848
# Text: This example describes the general procedure used to assess the compounds' potency to induce NF-κB expression in RAW 264.7 macrophages cells that stably express secreted embryonic alkaline phosphatase (SEAP) upon induction of NF-κB. RAW-Blue™ reporter cells are commonly used for quantifying TLR7/8 agonist potencies in reporter cell assays. Conversely, we used RAW-Blue™ cells to evaluate the potencies of the synthesized derivatives, as previously reported^1. ^1 Ryu et al, J. Am. Chem. Soc. (2014), 136, 10823-10825
# RAW 264.7 assays were carried out using RAW-Blue™ cells and QUANTI-Blue™ detection solution (Invivogen, Toulouse, France, at. #raw-sp and rep-qbs respectively). The assays carried out according to the protocol from Invivogen. RAW 264.7 macrophages were cultured in DMEM high glucose (4.5 g/L) supplemented with 10% (v/v) FBS, 1% (v/v) P/S, and Normocin™ (100 μg/ml). On the day of the study, the cells were seeded in a 96-well plate (ThermoFisher Scientific, Roskilde, Denmark) with 20 μL TLR7/8 agonist solutions per well at varying concentrations by adding 180 μL cell suspension, made by suspending cells to 0.55×10^6 cells per mL in the prepared cell medium added Zeocin™ (200 μg/ml), leading to a final concentration of 100×10^3 cells per well in triplicates. Cells were incubated with the TLR7/8 agonists, diluted from 10 mM DMSO stocks in PBS, at 37° C. with 5% CO2 for 24 h for SEAP production. 50 μL SEAP containing cell supernatant from each well was added 150 μL QUANTI-Blue™ detection solution and was incubated at 37° C. for 3-6 h. The resulting response was quantified spectrophotometrically at 640 nm and was normalized to the signal from a blank sample (DMSO dilution) run in parallel.
# Half maximal effective concentration (EC50) values were determined from sigmoidal 4PL fittings from the resulting dose-response curves in GraphPad Prism.
# mTLR7 = molecular target: T1, mTLR7 (Mus musculus, UniProt P58681); assay: NF-κB induction in HEK-Blue mTLR7 reporter cells; format: cell-based; settings: free compounds, 16 h
# T1 construct: host or cells: HEK-Blue (HEK293-derived) reporter cells
# T1 sequence (P58681 27-1050): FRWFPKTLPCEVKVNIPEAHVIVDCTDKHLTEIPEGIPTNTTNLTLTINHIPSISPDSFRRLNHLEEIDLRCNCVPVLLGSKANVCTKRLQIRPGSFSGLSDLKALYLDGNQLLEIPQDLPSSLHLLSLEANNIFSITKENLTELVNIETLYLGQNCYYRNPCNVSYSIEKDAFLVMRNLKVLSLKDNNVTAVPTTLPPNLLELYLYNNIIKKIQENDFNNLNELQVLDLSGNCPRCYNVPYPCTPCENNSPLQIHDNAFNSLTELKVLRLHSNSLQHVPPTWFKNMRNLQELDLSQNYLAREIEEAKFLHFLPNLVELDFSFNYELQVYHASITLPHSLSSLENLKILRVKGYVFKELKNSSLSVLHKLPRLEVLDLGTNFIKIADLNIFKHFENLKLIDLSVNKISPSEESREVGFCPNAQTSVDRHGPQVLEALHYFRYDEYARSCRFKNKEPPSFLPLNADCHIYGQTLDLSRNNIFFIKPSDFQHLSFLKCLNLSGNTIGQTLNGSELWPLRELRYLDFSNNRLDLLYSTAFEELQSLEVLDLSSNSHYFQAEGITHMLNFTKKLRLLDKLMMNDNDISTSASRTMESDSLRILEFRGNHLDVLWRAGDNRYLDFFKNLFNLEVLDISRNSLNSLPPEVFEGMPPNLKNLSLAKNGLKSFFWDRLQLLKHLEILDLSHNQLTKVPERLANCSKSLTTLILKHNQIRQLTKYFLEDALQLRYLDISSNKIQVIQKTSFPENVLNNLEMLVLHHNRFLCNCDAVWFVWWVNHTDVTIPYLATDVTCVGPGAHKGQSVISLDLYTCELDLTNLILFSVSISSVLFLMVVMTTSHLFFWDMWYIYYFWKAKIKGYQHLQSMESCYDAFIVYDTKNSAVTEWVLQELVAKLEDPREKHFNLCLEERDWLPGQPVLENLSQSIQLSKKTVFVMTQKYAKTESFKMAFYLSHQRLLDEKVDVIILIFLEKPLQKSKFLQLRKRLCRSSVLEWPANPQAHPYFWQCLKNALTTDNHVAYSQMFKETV
# Text: This example describes the general procedure used to assess the compounds' potency to induce NF-κB expression in human embryonic kidney (HEK) cells. The transcription factor NF-κB is expressed upon stimulation of TLR7/8 and is commonly used for quantifying TLR7/8 agonist potencies in reporter cell assays. Conversely, we used HEK-Blue mTLR-7 cells to evaluate the potencies of the synthesized derivatives, as previously reported (Shukla et al, J. Med. Chem. (2010), 53, 4450-4465).
# HEK-Blue TLR7 assays were carried out using HEK-Blue™ mTLR7 cells (Invivogen, Toulouse, France, Cat. #hkb-mtlr7). The assays were carried out according to the protocol from Invivogen. TLR expressing cells were cultured in DMEM high glucose (4.5 g/L) supplemented with 10% (v/v) fetal bovine serum (FBS) and 1% (v/v) penicillin-streptomycin (P/S) to 50 U/ml penicillin and […] streptomycin. On the day of the study, the cells were seeded in a 96-well plate (ThermoFisher Scientific, Roskilde, Denmark) with 20 μL imidazoquinoline TLR7/8 agonist solutions per well at varying concentrations by adding 180 μL cell suspension, made by suspending cells to 0.22×10^6 cells per mL in HEK-Blue™ Detection medium (Invivogen, Cat. #hb-det2) added Blasticidin (10 μg/ml) and Zeocin™ (100 μg/ml), leading to a final concentration of 40×10^3 cells per well in triplicates. Cells were incubated with the imidazoquinoline TLR7/8 agonists, formulated in liposomes or dissolved in PBS, at 37° C. with 5% CO2 for 16 h. The response was quantified spectrophotometrically at 655 nm and was normalized to the signal from a blank sample (DMSO dilution) run in parallel.
# [1] = Remote loading efficiency of small molecules into liposomes (PD-10 size exclusion, HPLC); format: physicochemical; settings: mean (SD), n = 2
# Protocol: A solution of the small molecule (modified TLR agonist) was lyophilized in a vial equipped with a magnetic stir bar over night to form a fluffy white powder. This powder was added either formulation F1 or F2 to the wanted drug/lipid ratio. The resulting mixture was stirred at 55° C. or 41° C. for formulation F1 and F2 respectively for 3h, then allowed to cool to rt before the solutions were refrigerated and stored at 4° C.
# Remote loading efficiency was determined at 1 h and 3 h by taking out 100 μL of the mixture and applying this and 900 μL buffer (25 mM HEPES, 10 vol % sucrose buffer, pH 7.4) to a PD-10 column size exclusion column. Following, 10×1 mL fractions were collected, and the small molecule compound concentrations in the loading mixture and in the liposome containing fractions were determined on analytical HPLC. Loading efficiency was calculated as percentage of molecules found in liposome containing fractions out of the applied amount. The general procedure for the small molecule remote loading is visualized in FIG. 3. The general concept of remote loading imidazoquinolines in liposomes that are dialyzed against HEPES is visualized in FIG. 4.
# [2] = formulation F3, drug/lipid ratio 0.10, 1 h
# [3] = formulation F3, drug/lipid ratio 0.10, 3 h
SMILES,EC50 (RAW-Blue cells),"Remote loading efficiency 1 h (%) [1, 2]","Remote loading efficiency 3 h (%) [1, 3]","Remote loading efficiency 1 h (%) ([1]; formulation F3, drug/lipid ratio 0.25, 1 h)","Remote loading efficiency 3 h (%) ([1]; formulation F3, drug/lipid ratio 0.25, 3 h)","Remote loading efficiency 1 h (%) ([1]; formulation F3, drug/lipid ratio 0.50, 1 h)","Remote loading efficiency 3 h (%) ([1]; formulation F3, drug/lipid ratio 0.50, 3 h)",Potency in the RAW-Blue cell assay (RAW-Blue cells),TLR7 agonist activity (NF-κB induction) (mTLR7)
"CCCCc1nc2c(N)nc3ccccc3c2n1Cc1ccc(CNC(=O)[C@@H](N)C(C)C)cc1 [MK145, (S)-2-amino-N-(4-((4-amino-2-butyl-1H-imidazo[4,5-c]quinolin-1-yl)methyl)benzyl)-3-methylbutanamide]",30 nM,97.2 (4.0) %,92.4 (3.9) %,,,,,the most potent compounds,potencies that were higher or comparable to that of R848
"CCCCc1nc2c(N)nc3ccccc3c2n1Cc1ccc(CNC(=O)[C@H](C)N)cc1 [MK137, (S)-2-amino-N-(4-((4-amino-2-butyl-1H-imidazo[4,5-c]quinolin-1-yl)methyl)benzyl)propanamide]",40 nM,98.1 (5.2) %,99.1 (1.8) %,,,,,greater potencies than R848,potencies that were higher or comparable to that of R848
"CCCCc1nc2c(N)nc3ccccc3c2n1Cc1ccc(CNC(=O)[C@@H](N)CCC(N)=O)cc1 [MK136, (S)-2-amino-N-(4-((4-amino-2-butyl-1H-imidazo[4,5-c]quinolin-1-yl)methyl)benzyl)pentanediamide]",740 nM,2.0 (0.2) %,3.1 (0.4) %,,,,,,the lowest potency of all derivatives

# More lines, main results first:
EC50 (RAW-Blue cells),"Remote loading efficiency 1 h (%) [1, 2]","Remote loading efficiency 3 h (%) [1, 3]","Remote loading efficiency 1 h (%) ([1]; formulation F3, drug/lipid ratio 0.25, 1 h)","Remote loading efficiency 3 h (%) ([1]; formulation F3, drug/lipid ratio 0.25, 3 h)","Remote loading efficiency 1 h (%) ([1]; formulation F3, drug/lipid ratio 0.50, 1 h)","Remote loading efficiency 3 h (%) ([1]; formulation F3, drug/lipid ratio 0.50, 3 h)",SMILES,Potency in the RAW-Blue cell assay (RAW-Blue cells),TLR7 agonist activity (NF-κB induction) (mTLR7)
340 nM,84.7 (17.4) %,90.6 (1.6) %,,,,,"CCCCc1nc2c(N)nc3ccccc3c2n1Cc1ccc(CNC(=O)CN)cc1 [MK139, 2-amino-N-(4-((4-amino-2-butyl-1H-imidazo[4,5-c]quinolin-1-yl)methyl)benzyl)acetamide]",,potencies that were higher or comparable to that of R848
40 nM,94.1 (2.9) %,88.4 (1.5) %,,,,,"CCCCc1nc2c(N)nc3ccccc3c2n1Cc1ccc(CNC(=O)[C@@H](N)[C@@H](C)CC)cc1 [MK146, (2S,3S)-2-amino-N-(4-((4-amino-2-butyl-1H-imidazo[4,5-c]quinolin-1-yl)methyl)benzyl)-3-methylpentanamide]",greater potencies than R848,potencies that were higher or comparable to that of R848
420 nM,85.9 (4.7) %,86.4 (5.1) %,55.5 (5.7) %,65.0 (7.7) %,19.5 (0.1) %,23% and 23.3 (0.3) %,"CCCCc1nc2c(N)nc3ccccc3c2n1Cc1ccc(CNC(=O)[C@@H](N)CC(N)=O)cc1 [MK135, (S)-2-amino-N-(4-((4-amino-2-butyl-1H-imidazo [4,5-c]quinolin-1-yl)methyl)benzyl)succinamide]",,the lowest potency of all derivatives
50 nM,93.6 (0.1) %,98.3 (3.4) %,,,,,"CCCCc1nc2c(N)nc3ccccc3c2n1Cc1ccc(CNC(=O)[C@@H]2CCCN2)cc1 [MK140, (S)—N-(4-((4-amino-2-butyl-1H-imidazo[4,5-c]quinolin-1-yl)methyl)benzyl)pyrrolidine-2-carboxamide]",greater potencies than R848,potencies that were higher or comparable to that of R848
